Some test systems named below: A549; SR; NCI/ADR-RES; SW-620; SK-MEL-5; DU-145; OVCAR-8; SK-OV-3; MCF7; U-251; SK-MEL-28; HT-29; MDA-MB-231; SNB-19; OVCAR-5; NCI-H522; IGROV-1; SF-539; HOP-62; UACC-257.
Holding throughout (experiment): NCI-60 cell line screen, 48 h

The values below come from ChEMBL document CHEMBL1201862, “PubChem BioAssay data set” (2004).

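96-well plates; 48 h exposure; 5 concentrations. Endpoints by linear interpolation between flanking doses. Not reached: highest tested concentration assigned. GI50 = concentration required for 50% inhibition of growth.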 The source made the active and inactive calls. Rule as the data show it: active = GI50 up to about 1.1 µM and inactive = higher.

For `OCc1cn(Cc2ccccc2)c2ccccc12`, the GI50 in the experiment on A549 was 9.02 µM (inactive); in the experiment on SR, 12.4 µM (inactive); in the experiment on NCI/ADR-RES, 15.2 µM (inactive); in the experiment with SW-620 it was 1.36 µM (inactive); in the experiment with SK-MEL-5 it was 25.7 µM (inactive); with DU-145, > 21.6 µM (inactive). Besides, the GI50 was 13 µM (inactive) in the experiment with OVCAR-8; 11 µM (inactive) with SK-OV-3; 0.612 µM (active) with MCF7; 1.02 µM (active) in the experiment on U-251; > 59.3 µM (inactive) in the experiment on SK-MEL-28; 1.71 µM (inactive) in the experiment with HT-29. For the same compound, the GI50 with MDA-MB-231 is 19.5 µM (inactive); in the experiment on SNB-19 it was > 64.6 µM (inactive); with OVCAR-5, 0.375 µM (active); in the experiment with NCI-H522, 4.65 µM (inactive); in the experiment on IGROV-1 it was < 0.0356 µM (active); in the experiment with SF-539, > 34.5 µM (inactive). In addition, in the experiment on HOP-62, the GI50 is 5.32 µM (inactive).
Take `CCCCCCCCCCCC1NC(N)=NC(CCCO)=C1C(=O)OC` (configuration not stated): the GI50 in the experiment on A549 was 5.92 µM (inactive); with SR it was 3.33 µM (inactive); in the experiment with NCI/ADR-RES, 17.7 µM (inactive); in the experiment on SW-620, 1.61 µM (inactive); in the experiment on SK-MEL-5, 2.24 µM (inactive); with DU-145 it was 9.35 µM (inactive). Also, the GI50 is 2.3 µM (inactive) with OVCAR-8; 2.33 µM (inactive) with SK-OV-3; 1.79 µM (inactive) with MCF7; 1.67 µM (inactive) with U-251; 1.73 µM (inactive) with HT-29; 2.08 µM (inactive) in the experiment on MDA-MB-231. The GI50 was 1.83 µM (inactive) with SNB-19; 6.62 µM (inactive) with OVCAR-5; 1.77 µM (inactive) in the experiment with NCI-H522; 1.84 µM (inactive) in the experiment on IGROV-1; 2.96 µM (inactive) in the experiment with SF-539; 3.16 µM (inactive) with UACC-257. For the same compound, the GI50 in the experiment on HOP-62 is 2.82 µM (inactive).
With `Cn1nc(/C=C\C(=O)N2CC(CCl)c3c2cc(N)c2ccccc32)cc1/C=C/C(=O)N1CC(CCl)c2c1cc(N)c1ccccc21` (configuration not stated), the GI50 was < 0.01 µM (active) in the experiment with A549; < 0.01 µM (active) in the experiment on SR; 0.0124 µM (active) in the experiment on NCI/ADR-RES; < 0.01 µM (active) in the experiment on SW-620; < 0.01 µM (active) in the experiment with SK-MEL-5; < 0.01 µM (active) in the experiment with DU-145. The GI50 in the experiment with OVCAR-8, with SK-OV-3, in the experiment with MCF7, in the experiment with U-251, with SK-MEL-28 and with MDA-MB-231 was < 0.01 µM (active) in each case. The GI50 in the experiment on SNB-19 was < 0.01 µM (active); in the experiment with OVCAR-5, < 0.01 µM (active); in the experiment with NCI-H522, < 0.01 µM (active); with SF-539, < 0.01 µM (active); in the experiment on UACC-257 it was 0.0225 µM (active); with HOP-62, < 0.01 µM (active).
For `CC(C)CC(NC=O)C(=O)NC(Cc1ccccc1)NC(=O)CNC(=O)C(C)NC(=O)OC(C)(C)C` (configuration not stated), the GI50 in the experiment on A549, in the experiment with SR, in the experiment on NCI/ADR-RES, in the experiment on SW-620, in the experiment with SK-MEL-5 and in the experiment on DU-145 was > 100 µM (inactive) in each case. Moreover, the GI50 with OVCAR-8, in the experiment on SK-OV-3, in the experiment on MCF7, with U-251, in the experiment on SK-MEL-28 and in the experiment on HT-29 was > 100 µM (inactive) throughout. Moreover, the GI50 in the experiment on MDA-MB-231, with SNB-19, in the experiment on OVCAR-5, with NCI-H522, in the experiment with IGROV-1 and in the experiment with SF-539 was > 100 µM (inactive) in each case. For the same compound, the GI50 in the experiment with HOP-62 was > 100 µM (inactive).
On to `c1ccc2c(-c3cnc(-c4c[nH]c5ccccc45)cn3)c[nH]c2c1`, for which the GI50 in the experiment with A549 is > 100 µM (inactive); in the experiment with SR it was 30 µM (inactive); with NCI/ADR-RES it was 74.5 µM (inactive); in the experiment on SW-620, 18.9 µM (inactive); in the experiment with SK-MEL-5, 50.1 µM (inactive); with DU-145, > 100 µM (inactive). Moreover, the GI50 in the experiment on OVCAR-8 was 39.4 µM (inactive); in the experiment with SK-OV-3 it was 49.1 µM (inactive); in the experiment on MCF7, 6.61 µM (inactive); with U-251, 49.7 µM (inactive); in the experiment with SK-MEL-28, 35.6 µM (inactive); in the experiment with MDA-MB-231, 91 µM (inactive). Moreover, the GI50 in the experiment on SNB-19 is 58.7 µM (inactive); in the experiment on OVCAR-5 it was 46.1 µM (inactive); in the experiment with NCI-H522, 28.6 µM (inactive); in the experiment on IGROV-1, 30.8 µM (inactive); with SF-539, 23.6 µM (inactive); in the experiment with UACC-257 it was 43.4 µM (inactive). Besides, the GI50 in the experiment on HOP-62 is 37.8 µM (inactive).
With `O=S(=O)(O)c1ccc2c(/N=N/c3ccc(S(=O)(=O)O)c4ccccc34)c(O)c(S(=O)(=O)O)cc2c1`, the GI50 with SR, in the experiment with NCI/ADR-RES, with SW-620, in the experiment on SK-MEL-5, in the experiment with DU-145 and in the experiment on OVCAR-8 was > 100 µM (inactive) each time. For the same compound, the GI50 in the experiment on SK-OV-3, in the experiment on MCF7, with U-251, in the experiment with SK-MEL-28, in the experiment with HT-29 and with MDA-MB-231 was > 100 µM (inactive) each time. In addition, the GI50 in the experiment on SNB-19, in the experiment on OVCAR-5, in the experiment on NCI-H522, in the experiment with IGROV-1, in the experiment with SF-539 and in the experiment on UACC-257 was > 100 µM (inactive) each time. Moreover, the GI50 in the experiment on HOP-62 is > 100 µM (inactive).
Take `CCCCCCC(O)C(O)CCC(O)C1CCC(CCCCC(O)CC2=CC(C)OC2=O)O1` (configuration not stated) [ACETOGENINS]: the GI50 is 1.79 µM (inactive) in the experiment with A549; 1.69 µM (inactive) in the experiment on SR; 1.14 µM (inactive) in the experiment on NCI/ADR-RES; 4.04 µM (inactive) in the experiment on SW-620; 1.04 µM (active) with SK-MEL-5; 6.19 µM (inactive) in the experiment on DU-145. Besides, the GI50 in the experiment on OVCAR-8 is 2.18 µM (inactive); in the experiment with MCF7, 1.26 µM (inactive); with U-251 it was 3.54 µM (inactive); in the experiment with SK-MEL-28, 4.66 µM (inactive); in the experiment with HT-29, 2.33 µM (inactive); in the experiment with MDA-MB-231, 1.2 µM (inactive). The GI50 is 2.74 µM (inactive) in the experiment with SNB-19; 8.3 µM (inactive) in the experiment on OVCAR-5; 7.71 µM (inactive) in the experiment on NCI-H522; 2.95 µM (inactive) in the experiment with IGROV-1; 4.29 µM (inactive) in the experiment with SF-539; 1.86 µM (inactive) in the experiment on UACC-257. Further, the GI50 in the experiment with HOP-62 is 3.81 µM (inactive).
